Key:
Type in all cases: functional, cell-based
[1] = system: A549; assay: Cytotoxicity against human A549 cells after 72 hrs by SRB assay
[2] = system: SK-OV-3; assay: Cytotoxicity against human SKOV3 cells after 72 hrs by SRB assay
[3] = system: SK-MEL-2; assay: Cytotoxicity against human SK-MEL-2 cells after 72 hrs by SRB assay
[4] = system: HCT-15; assay: Cytotoxicity against human HCT15 cells after 72 hrs by SRB assay
[5] = Homo sapiens, A549, 72 h, read-out: IC50
[6] = Homo sapiens, SK-OV-3, 72 h, read-out: IC50
[7] = Homo sapiens, SK-MEL-2, 72 h, read-out: IC50
[8] = Homo sapiens, HCT-15, 72 h, read-out: IC50

C[C@H]1C[C@H]([C@](C)(O)[C@H]2CC[C@H]3[C@@H]4[C@@H]5O[C@@H]5[C@@]5(O)CC=CC(=O)[C@]5(C)[C@H]4CC[C@]23C)OC(=O)[C@@H]1C
IC50 ([1]; a549): Not Active | IC50 ([2]; sk-ov-3): Not Active | IC50 ([3]; sk-mel-2): Not Active | IC50 ([4]; hct-15): Not Active

CC(=O)O[C@@H]1C[C@H]2[C@@H]3[C@@H]4O[C@@H]4[C@@]4(O)CC=CC(=O)[C@]4(C)[C@H]3CC[C@]2(C)/C1=C(\C)[C@H]1CC(C)=C(CO)C(=O)O1
IC50 [1, 5]: > 10 µM | IC50 [2, 6]: > 10 µM | IC50 [3, 7]: 10 µM | IC50 [4, 8]: 7.6 µM

CC1=C(C)[C@H](O)[C@H]([C@](C)(O)[C@H]2CC[C@H]3[C@@H]4[C@@H]5O[C@@H]5[C@@]5(O)CC=CC(=O)[C@]5(C)[C@H]4CC[C@]23C)OC1=O
IC50 [1, 5]: > 10 µM | IC50 [2, 6]: > 10 µM | IC50 [3, 7]: 9.2 µM | IC50 [4, 8]: 9.8 µM

CC1=C(C)C(=O)O[C@@H]([C@](C)(O)[C@@]2(O)CC[C@H]3[C@@H]4[C@@H]5O[C@@H]5[C@@]5(O)CC=CC(=O)[C@]5(C)[C@H]4CC[C@@]32C)C1
IC50 ([1]; a549): Not Active | IC50 ([2]; sk-ov-3): Not Active | IC50 ([3]; sk-mel-2): Not Active | IC50 ([4]; hct-15): Not Active

CC1=C(C)C(=O)O[C@@H]([C@](C)(O)[C@H]2CC[C@H]3[C@@H]4[C@H](O)C=C5CC=CC(=O)[C@]5(C)[C@H]4CC[C@]23C)C1
IC50 [1, 5]: > 10 µM | IC50 [2, 6]: 7.9 µM | IC50 [3, 7]: 3.4 µM | IC50 [4, 8]: 5.1 µM

CC1=C(CO)C(=O)O[C@@H]([C@](C)(O)[C@H]2CC[C@H]3[C@@H]4[C@@H]5O[C@@H]5[C@@]5(O)CC=CC(=O)[C@]5(C)[C@H]4CC[C@]23C)C1
IC50 ([1]; a549): Not Active | IC50 ([2]; sk-ov-3): Not Active | IC50 ([3]; sk-mel-2): Not Active | IC50 ([4]; hct-15): Not Active

CC1=C(C)C(=O)O[C@@H]([C@](C)(O)[C@H]2CC[C@H]3[C@@H]4[C@@H]5O[C@@H]5[C@@]5(O)CC=CC(=O)[C@]5(C)[C@H]4CC[C@]23C)C1 [WITHANOLIDE A]
IC50 ([1]; a549): Not Active | IC50 ([2]; sk-ov-3): Not Active | IC50 ([3]; sk-mel-2): Not Active | IC50 ([4]; hct-15): Not Active

CC1=C(CO)C(=O)O[C@@H]([C@@H](C)[C@@]2(O)CC[C@H]3[C@@H]4[C@@H]5O[C@@H]5[C@@]5(O)CC=CC(=O)[C@]5(C)[C@H]4CC[C@@]32C)C1
IC50 ([1]; a549): Not Active | IC50 ([2]; sk-ov-3): Not Active | IC50 ([3]; sk-mel-2): Not Active | IC50 ([4]; hct-15): Not Active

C[C@H]1C[C@H]([C@](C)(O)[C@H]2CC[C@H]3[C@@H]4[C@H](O)C=C5CC=CC(=O)[C@]5(C)[C@H]4CC[C@]23C)OC(=O)[C@@H]1C
IC50 [1, 5]: > 10 µM | IC50 [2, 6]: 8.8 µM | IC50 [3, 7]: 5.9 µM | IC50 [4, 8]: 5.7 µM

CC1=C(C)C(=O)O[C@@H]([C@@H](C)[C@]2(O)CC[C@H]3[C@@H]4[C@@H]5O[C@@H]5[C@@]5(O)CC=CC(=O)[C@]5(C)[C@H]4CC[C@@]32C)C1
IC50 ([1]; a549): Not Active | IC50 ([2]; sk-ov-3): Not Active | IC50 ([3]; sk-mel-2): Not Active | IC50 ([4]; hct-15): Not Active

C[C@H]([C@H]1C[C@H](C)[C@@H](C)C(=O)O1)[C@@]1(O)CC[C@H]2[C@@H]3[C@@H]4O[C@@H]4[C@@]4(O)CC=CC(=O)[C@]4(C)[C@H]3CC[C@@]21C
IC50 ([1]; a549): Not Active | IC50 ([2]; sk-ov-3): Not Active | IC50 ([3]; sk-mel-2): Not Active | IC50 ([4]; hct-15): Not Active

CC1=C(CO)C(=O)O[C@@H](/C(C)=C2\[C@H](O)C[C@H]3[C@@H]4[C@@H]5O[C@@H]5[C@@]5(O)CC=CC(=O)[C@]5(C)[C@H]4CC[C@]23C)C1
IC50 ([1]; a549): Not Active | IC50 ([2]; sk-ov-3): Not Active | IC50 ([3]; sk-mel-2): Not Active | IC50 ([4]; hct-15): Not Active

CC1=C(C)C(=O)O[C@@H]([C@@H](C)[C@@]2(O)CC[C@H]3[C@@H]4[C@@H]5O[C@@H]5[C@@]5(O)CC=CC(=O)[C@]5(C)[C@H]4CC[C@@]32C)C1 [WITHANONE]
IC50 [1, 5]: > 10 µM | IC50 [2, 6]: > 10 µM | IC50 [3, 7]: 6.1 µM | IC50 [4, 8]: 5.9 µM

COc1cc([C@@H]2c3cc4c(cc3[C@@H](O[C@@H]3O[C@@H]5CO[C@@H](C)O[C@H]5[C@H](O)[C@H]3O)[C@H]3COC(=O)[C@H]23)OCO4)cc(OC)c1O [ETOPOSIDE]
IC50 [1, 5]: 0.71 µM | IC50 [2, 6]: 1.83 µM | IC50 [3, 7]: 0.79 µM | IC50 [4, 8]: 0.46 µM

Source: ChEMBL document CHEMBL4480413, “Cytotoxic Withanolides from the Roots of Indian Ginseng ( Withania somnifera)” (J Nat Prod, 2019)
